Active and inactive are the calls of the source. The rule behind the calls is not given here.
Molecular target: Serine/threonine-protein kinase mTOR (Homo sapiens) (UniProt P42345)
Test: binders of mTOR FRB domain, biophysical, NMR (AID 1648)
Settings: NMR binding to FRB domain, chemical shift

Chain of Serine/threonine-protein kinase mTOR (Homo sapiens) (P42345 2015-2114): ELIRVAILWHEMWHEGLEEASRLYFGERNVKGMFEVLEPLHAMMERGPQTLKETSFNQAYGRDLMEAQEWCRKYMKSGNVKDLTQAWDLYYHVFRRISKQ

SMILES | Kd
O=C(O)c1ccc2ncccc2c1 | > 4 mM (inactive)
O=c1cnnc(SCCc2ccccc2)[nH]1 | > 4 mM (inactive)
COc1ccc(-c2oc3cc(O[C@H]4O[C@H](CO)[C@@H](O)[C@H](O)[C@H]4O)c(OC)c(O)c3c(=O)c2OC)cc1O | > 4 mM (inactive)
O=C1CNC(=O)N1Cc1ccc(Br)cc1 | > 4 mM (inactive)
CS(=O)(=O)c1cccc(C(=O)Nc2nccs2)c1 | > 4 mM (inactive)
Cc1cc(N2CCCC2=O)c(N)cc1N | > 4 mM (inactive)
COc1ccc([C@@H](C)C(=O)c2ccc(O)cc2O)cc1 | > 4 mM (inactive)
O=C(O)CCC1NCC2CC1CN1CCCCC21 (stereo not given) | > 4 mM (inactive)
CN(C)C(=O)c1ccc(-c2n[nH]c(=O)c3ccccc23)cc1 | > 4 mM (inactive)
O=C1NC(=O)/C(=C\c2ccncc2)S1 | > 4 mM (inactive)
O=C1NC(=S)N/C1=C/c1ccsc1 | > 4 mM (inactive)
CC(=O)c1c(O)cc(C)n(Cc2ccccc2)c1=O | > 4 mM (inactive)
NCCC(=O)N[C@@H](Cc1cnc[nH]1)C(=O)O | > 4 mM (inactive)
Nc1cc(=O)[nH]c(=S)n1CCc1ccccc1 | > 4 mM (inactive)
CC1(C)C=Cc2cc3ccc(=O)oc3cc2O1 | > 4 mM (inactive)
O=C(CNC(=O)c1ccc(F)cc1)NC1=NCCS1 | > 4 mM (inactive)
Cc1oc(-c2ccccc2)nc1CC(=O)O | > 4 mM (inactive)
Nc1cccc(S(N)(=O)=O)c1 | > 4 mM (inactive)
O=C(Nc1cccc(Cl)c1)c1cnn2cccnc12 | > 4 mM (inactive)
CS(=O)(=O)CCCCN=C=S | > 4 mM (inactive)
O=C1c2cccnc2C(=O)N1Cc1ccco1 | > 4 mM (inactive)
CCOC(=O)c1cc(C)n(-n2cnnc2)c1C | > 4 mM (inactive)
NC(=O)CSc1ccc(Br)cc1 | > 4 mM (inactive)
O=C1CCCN1C(=O)c1ccc(F)cc1 | > 4 mM (inactive)
C[C@]12CC(=O)C3C(CC[C@@H]4C[C@H](O)CC[C@]34C)C1CC[C@]2(O)C(=O)CO (stereo not given in full) | > 4 mM (inactive)
O=C1CCc2ccccc2CN1 | > 4 mM (inactive)
Cn1c(CSc2nc3ccccc3s2)n[nH]c1=S | > 4 mM (inactive)
CC(=O)NC1(NC(C)=O)CCN(C)CC1 | > 4 mM (inactive)

SMILES | Kd
NS(=O)(=O)c1ccc(F)cc1 | > 4 mM (inactive)
CC(=O)OCC(=O)[C@@]1(O)CCC2C3CC[C@@H]4C[C@H](OC(C)=O)CC[C@]4(C)C3C(=O)C[C@@]21C (stereo not given in full) | > 4 mM (inactive)
O=C1c2ccncc2C(=O)N1CNc1ccccn1 | > 4 mM (inactive)
Cc1nn2c(=O)c(NC(=O)c3ccccc3)cnc2s1 | > 4 mM (inactive)
O=C(O)c1cccnc1N1CCOCC1 | > 4 mM (inactive)
Cc1cc(C)n(-c2nncn2N)n1 | > 4 mM (inactive)
Cc1ncoc1C(=O)Nc1ncc([N+](=O)[O-])s1 | > 4 mM (inactive)
CC(=O)Nc1cccc(NC(=O)c2cccnc2)c1 | > 4 mM (inactive)
CC(=O)Nc1ccc2c(c1)C(=O)N(C1CCCCC1)C2=O | > 4 mM (inactive)
COCC(=O)Nc1cccc2ccccc12 | > 4 mM (inactive)
COc1ccc(-c2oc3c(CC=C(C)C)c(O[C@@H]4O[C@H](CO)[C@@H](O)[C@H](O)[C@H]4O)cc(O)c3c(=O)c2O[C@@H]2O[C@@H](C)[C@H](O)[C@@H](O)[C@H]2O)cc1 | > 4 mM (inactive)
COC(=O)C[C@H]1C2(C)CC34OC5(C)O[C@@]6([C@H](OC(C)=O)C(OC(C)=O)[C@]7(C)C(/C(=C(/O)C(C)C)C(=O)O[C@H]7c7ccoc7)[C@@]6(O5)[C@H](OC(C)=O)[C@@]3(O)C2OC(=O)C(C)C)[C@]14C (stereo not given in full) | > 4 mM (inactive)
CC(=O)OC[C@H]1O[C@@H](Oc2cc(OC(C)=O)c3c(=O)cc(-c4ccc(OC(C)=O)cc4)oc3c2)[C@H](OC(C)=O)[C@@H](OC(C)=O)[C@@H]1OC(C)=O | > 4 mM (inactive)
CCC(=O)Oc1ccc(N2C(=O)CCC2=O)cc1 | > 4 mM (inactive)
Cc1cc2c(N)cccc2nn1 | > 4 mM (inactive)
O=S(=O)(Nc1ccc2c(c1)OCCO2)c1cccs1 | > 4 mM (inactive)
COC(=O)c1ccc2snnc2c1 | > 4 mM (inactive)
O=C(NCc1cccs1)c1nn2cccnc2c1Cl | > 4 mM (inactive)
OCc1cc2ccccc2o1 | > 4 mM (inactive)
CN1CCC(NC(=O)Cc2c(F)cccc2Cl)CC1 | > 4 mM (inactive)
COc1ccc(N/C(N)=N\c2nc(C)cc(C)n2)cc1 | > 4 mM (inactive)
OCc1ccc2nsnc2c1 | > 4 mM (inactive)
CN1CCN(c2ccc(CN)cc2)CC1 | > 4 mM (inactive)
Nc1c(/C=C2\C=Nc3ccccc32)c(=O)nc2scnn12 | > 4 mM (inactive)
Cc1cc(C(=O)Nc2nnc(C(F)(F)F)s2)no1 | > 4 mM (inactive)
O=C1C2C3CCC(O3)C2C(=O)N1c1cccc(F)c1 (stereo not given) | > 4 mM (inactive)
Cc1nc(N)sc1C(=O)N/N=C/c1ccncc1 | > 4 mM (inactive)
